Assays:
lung fibroblasts [1] = experiment: Immunostaining for subcellular colocalization of collagen α1(I) and α2(I) polypeptides; assay type: cell-based, human; conditions: ML-7-treated vs control cells (high degree of colocalization)
Protocol: (§1) ML-7, blebbistatin, cytochalasin B, puromycin, and cycloheximide were purchased from Sigma. ML-7 was used at 40 μM, blebbistatin was used at 100 μM, and cytochalasin B was used at 20 μM. Cells were incubated with the drugs for 16 h before analysis. Puromycin (200 μg/ml) and cycloheximide (100 μg/ml) were added to the cells for 2 h. Human lung fibroblasts have been described previously.16 Scleroderma fibroblasts were purchased from the European Collection of Cell Cultures (cell line BM0070) and derived from the skin of a scleroderma patient. MEFs were derived from knock-in mice in which the 5′SL of the collagen α1(I) gene has been mutated (Parsons et al., submitted). Several independent cell isolates were used throughout the study. All cells were cultured in Dulbecco's modified Eagle's medium supplemented with 10% fetal bovine serum for up to 10 passages. […] [^32P]dCTP was included in the PCR step to label the products, which were resolved on sequencing gels, as described previously.^8,31,49,50 When RNA from polysomal fractions was analyzed, an equal aliquot of each fraction was used. […]
(§2) Protein concentration was estimated by the Bradford assay, with bovine serum albumin as standard.^51 Western blot analyses of cellular proteins were performed using 50 μg of protein. […] The medium was collected, and an aliquot was analyzed directly by Western blot analysis. […]

lung fibroblasts [2] = experiment: Apoptosis of primary lung fibroblasts; assay type: cell-based; conditions: lung fibroblasts after ML-7 treatment; without treatment 2.2%
Excerpt: To assess the role of nonmuscle myosin in collagen synthesis, we disrupted nonmuscle myosin filaments in two different cell types: primary human lung fibroblasts and primary scleroderma skin fibroblasts. These cells are responsible for lung and skin fibrosis. […] To assess the effect of ML-7 on collagen protein synthesis and secretion, we analyzed the levels of collagen α1(I) and α2(I) polypeptides in the intracellularly space and in the medium using Western blot analysis and chain-specific antibodies.^12,15,31-33 ML-7 treatment profoundly affected the secretion of type I collagen, but the effect differed in the two types of primary fibroblasts. […] To assess if the secreted α1(I) polypeptides had been secreted as disulfide-bonded homotrimers, we performed Western blot analysis under nonreducing conditions (FIG. 3d). […] However, since α2(I) polypeptide was absent in the cell medium of ML-7-treated cells, the bands must represent disulfide-bonded collagen α1(I) chains. The α2(I) antibody could not recognize the polypeptide under nonreducing conditions, so we could not directly test its presence in S—S bonded collagen. Since there are reports that ML-7 can cause apoptosis of epithelial cells, we tested if ML-7 caused apoptosis of the primary fibroblasts. […] Therefore, we concluded that increased apoptosis is not responsible for the observed effects of ML-7. […]

[3] = system: nonmuscle myosin filaments; experiment: Immunostaining of nonmuscle myosin IIB filaments in lung fibroblasts; assay type: cell-based; conditions: human lung fibroblasts; ML-7 40 μM 16 h; untreated cells show prominent filaments
Protocol: as §1, §2

Compound: O=S(=O)(c1cccc2c(I)cccc12)N1CCCNCC1 [ML-7]
- subcellular colocalization of α1(I) and α2(I) polypeptides (lung fibroblasts [1]): a significant fraction of α2(I) polypeptide (red) was not colocalized with α1(I) polypeptide
- percentage of apoptotic cells (lung fibroblasts [2]): 4.2%
- myosin IIB immunostaining (filaments) [3]: myosin staining is confined around the nucleus

From patent publication US8697385B1, “Protein controlling synthesis of collagen and associated methods” (Florida State University Research Foundation, Inc., priority 2009, dated 2014)
